Measured values as given in patent US20210196724A1, “BIARYL COMPOSITIONS AND METHODS FOR MODULATING A KINASE CASCADE” (Athenex, Inc., priority 2016, published 2021).
Where two headings read alike, the source gives them in different places.

Assays:
HeLa cells = test: CellTiter-Glo cell viability, HeLa; type: cell-based; conditions: 72 h; for GI50: read-out: Absolute GI50
Description: (§1) The cell viability of 50 cancer cell lines was studied after treatment with Compound 121. Inhibition concentration values at 50% (IC50) were determined using CellTiter-Glo luminescent cell viability assay after incubation with different compound concentrations. GI50 values were determined according to the examples described above. Each cell line was treated with Compound 121, a standard chemotherapy drug as a reference control, and culture medium as a vehicle control.
(§2) All cells were cultured in media supplemented with 10-15% FBS at 37° C. in the presence of 5% CO2 and at 95% humidity. The culture medium was purchased from GIBCO or Sigma, USA. Cisplatin was chosen as the reference control and purchased from Hospira Australia Pty Ltd. The cell lines studied are presented in Table 5.
(§3) Cells were harvested during a logarithmic growth period and cell number count was determined using Count-star. Cell concentrations were adjusted to 4.44×10^4 cells/mL with respective culture medium. 90 μL of cell suspensions were added to two 96-well plates (plates A and B) with a final cell density of 4×10^3 cells/well.
(§4) 10 μL of culture medium was added to each well of plate A for TO reading. The plate was allowed to equilibrate at room temperature for approximately 30 min. 50 μL of CellTiter-Glo was added to each well and the contents were mixed for 5 min on an orbital shaker to induce cell lysis. The plate was allowed to incubate at room temperature for 20 min to stabilize luminescent signal.
(§5) 10 μM Compound 121 in media was serially diluted 3.16-fold to achieve 9 dose levels. Similarly, 100 μM reference control in media was serially diluted 3.16-fold to prepare reference control solutions. 10 μL drug solution and 10 μL of reference control was dispensed into each well in plate B.
(§6) Test plate B was incubated for 72 h in a humidified incubator at 37° C. in the presence of 5% CO2 and then subjected to CTG assay. The plate was allowed to equilibrate at room temperature for about 30 min. 50 μL of CellTiter-Glo was added to each well and the contents were mixed for 5 min on an orbital shaker to induce cell lysis. The plate was allowed to incubate at room temperature for 20 min to stabilize luminescent signal.
(§7) IC50 and GI50 values for each of the 50 cell lines are presented in Table 6 and were calculated based on the dose-response curves depicted in FIGS. 1-50. The dose-response curves were fitted using nonlinear regression model with a sigmoidal dose response. The formula for calculating survival rate was calculated by the formula:
(§8) Survival rate (%)=(LumTest article−LumMedium control)/(LumNone treated−LumMedium control)×100.

[1] = test system: GL261 glioblastoma cells injected intra-cranially; test: GL261 murine model of glioblastoma (intra-cranial), survival; type: in vivo, C57BL/6 mice; conditions: orally once per day at 1 mg/kg for 45 days
Description: The anti-tumor activity of Compound 121, as a single agent, was studied in the GL261 murine model of human glioblastoma. Murine GL261 glioblastoma cells were injected intra-cranially into syngeneic, immune-competent hosts (C57BL/6). In order for oral therapeutics to be effective, it is required that the therapeutic be able to cross the blood-brain barrier in order to achieve sufficient levels in the brain to exert an anti-tumor effect. Survival was the major endpoint for the study. The mice either succumbed to the tumor or were euthanized based on severity of tumor-dependent morbidity. Mice that achieved long-term survival (>80 days) were re-challenged with a sub-cutaneous injection of GL261 cells to assess the development of a durable immune response to GL261. Mice that underwent the re-challenge phase were not treated with Compound 121.
GL261 cells (1×10^5 cells) were implanted into the brain of a C57BL/6 host using stereotactice injection. Compound 121 was dosed orally once per day at 1 mg/kg (N=10) for 45 days beginning 3 days post-tumor cell implantation. Compound Y was dosed orally once per day at 5 mg/kg (N=10) for 45 days beginning 3 days post-tumor implantation. A vehicle was administered to a control group of mice (N=10) per the same schedule.
Mice were monitored for signs of tumor dependent morbidity, including head tilt, hunching, ataxia, and limb weakness. Mice were euthanized when cumulative signs of high tumor burden were evident.

U251 cells = test: CellTiter-Glo cell viability, U251; type: cell-based; conditions: for GI50: read-out: Absolute GI50; for IC50: read-out: Absolute IC50
Description: as §1, §2, §3, §4, §5, §6, §7, §8

HuCCT1 cells = test: CellTiter-Glo cell viability, HuCCT1; type: cell-based; conditions: for GI50: read-out: Absolute GI50; for IC50: read-out: Absolute IC50
Description: as §1, §2, §3, §4, §5, §6, §7, §8

SK-N-FI cells = test: CellTiter-Glo cell viability, SK-N-FI; type: cell-based; conditions: 72 h; for GI50: read-out: Absolute GI50; for IC50: read-out: Absolute IC50
Description: as §1, §2, §3, §4, §5, §6, §7, §8

MDA-MB-231 cells = test: CellTiter-Glo cell viability, MDA-MB-231; type: cell-based; conditions: 72 h; for GI50: read-out: Absolute GI50
Description: as §1, §2, §3, §4, §5, §6, §7, §8

KYSE-150 cells = test: CellTiter-Glo cell viability, KYSE-150; type: cell-based; conditions: 72 h; for GI50: read-out: Absolute GI50; for IC50: read-out: Absolute IC50
Description: as §1, §2, §3, §4, §5, §6, §7, §8

[2] = Pharmacokinetic properties after IV and PO administration; type: in vivo
MDA-MB-468 cells = test: CellTiter-Glo cell viability, MDA-MB-468; type: cell-based; conditions: 72 h; for GI50: read-out: Absolute GI50; for IC50: read-out: Absolute IC50
Description: as §1, §2, §3, §4, §5, §6, §7, §8

[3] = Homo sapiens, read-out: Absolute IC50
[4] = Homo sapiens, top conc. 10 μM Compound 121, 100 μM cisplatin
[5] = in vivo, IV Administration (5 mg/kg)
[6] = top conc. 10 μM Compound 121, 100 μM cisplatin
[7] = 72 h, top conc. 10 μM Compound 121, 100 μM cisplatin

Cc1cc(N2CCOC[C@@H]2C)ccc1-c1ccc(CC(=O)NCc2ccc(F)cc2)nc1 [Compound 121]
GI50 (HeLa cells; Homo sapiens): 4 nM
IC50 (HeLa cells; [3]): 4 nM
inhibition at 10 µM (HeLa cells; [4]): 89.5%
Survival compared to vehicle control [1]: significanly extended survival
Survival beyond 80 days (long term survival) ([1]; N=10): 2 of the 10
GI50 (U251 cells; Homo sapiens, U-251, 72 h): 9 nM
IC50 (U251 cells; Homo sapiens, U-251, 72 h): 9 nM
inhibition at 10 µM (U251 cells; Homo sapiens, U-251, 72 h, top conc. 10 μM Compound 121, 100 μM cisplatin): 75%
GI50 (HuCCT1 cells; Homo sapiens, HuCCT-1, 72 h): 4 nM
IC50 (HuCCT1 cells; Homo sapiens, HuCCT-1, 72 h): 4 nM
inhibition at 10 µM (HuCCT1 cells; Homo sapiens, HuCCT-1, 72 h, top conc. 10 μM Compound 121, 100 μM cisplatin): 54%
GI50 (SK-N-FI cells; Homo sapiens): 3 nM
IC50 (SK-N-FI cells; Homo sapiens): 4 nM
inhibition at 10 µM (SK-N-FI cells; [4]): 91.4%
GI50 (MDA-MB-231 cells; Homo sapiens): 20 nM
IC50 (MDA-MB-231 cells; [3]): > 10000 nM
inhibition at 10 µM (MDA-MB-231 cells; [4]): 45.8%
GI50 (KYSE-150 cells; Homo sapiens): 5 nM
IC50 (KYSE-150 cells; Homo sapiens): 6 nM
inhibition at 10 µM (KYSE-150 cells; [4]): 80%
AUCIV (dose-normalized) ([2]; IV Administration (5 mg/kg)): 575 kg·ng·h/mL/mg
t0.5 ([2]; IV Administration (5 mg/kg)): 0.959 h
F (%) = 100 × AUCpo/AUCIV ([2]; PO 20 mg/kg vs IV 5 mg/kg): 34.8%
AUCPO (dose-normalized) ([2]; PO Administration (20 mg/kg)): 199 kg·ng·h/mL/mg
C0 [2, 5]: 2850 ng/mL
clearance [2, 5]: 29 mL/min/kg
Vd ([2]; in vivo, IV Administration (5 mg/kg), read-out: Vss): 2.24 L/kg
Cmax ([2]; in vivo, PO Administration (20 mg/kg)): 2170 ng/mL
GI50 (MDA-MB-468 cells; Homo sapiens): 7 nM
IC50 (MDA-MB-468 cells; Homo sapiens): 9 nM
inhibition at 10 µM (MDA-MB-468 cells; [4]): 80%

N.N.[Cl][Pt][Cl] [Cisplatin, reference compound]
GI50 (HeLa cells): 300 nM
% inhibition at top conc. (HeLa cells; [6]): 99.60%
GI50 (U251 cells; 72 h): 3070 nM
IC50 (U251 cells; 72 h): 3980 nM
% inhibition at top conc. (U251 cells; [7]): 87.70%
GI50 (HuCCT1 cells; 72 h): 6590 nM
IC50 (HuCCT1 cells; 72 h): 8440 nM
% inhibition at top conc. (HuCCT1 cells; [7]): 90.42%
GI50 (SK-N-FI cells): 5800 nM
IC50 (SK-N-FI cells): 9260 nM
% inhibition at top conc. (SK-N-FI cells; [6]): 99.77%
GI50 (MDA-MB-231 cells): 18600 nM
% inhibition at top conc. (MDA-MB-231 cells; [6]): 85.68%
GI50 (KYSE-150 cells): 6260 nM
IC50 (KYSE-150 cells): 8140 nM
% inhibition at top conc. (KYSE-150 cells; [6]): 91.28%
GI50 (MDA-MB-468 cells): 650 nM
IC50 (MDA-MB-468 cells): 930 nM
% inhibition at top conc. (MDA-MB-468 cells; [6]): 99.91%
